In US12448369B2 (Edgewise Therapeutics, Inc., priority 2023, dated 2025):
Like-named read-outs stand apart in the source and are kept apart here. Marks after values point to notes of the source that are not given here.

Experiments:
SD rats = assay: Echocardiography of systolic cardiac performance (HR, FS, LV volumes, SWT) after a single oral dose; type: in vivo; settings: Rattus norvegicus, single dose 10 mg/kg PO, ~2 hrs post-dosing, isoflurane-anesthetized
Method: Example 2. Echocardiogram Data
Experiments were performed to evaluate the in vivo ability of the compounds of the disclosure to modulate systolic cardiac performance. Non-invasively echocardiography was used to assess cardiac indicators in isoflurane-anesthetized SD rats. A set of conscious rats were treated with either vehicle control (0 mg/kg PO; n=78) or a single dose of a test compound (10 mg/kg PO, n=2 to 6/compound) via oral gavage. Cardiac function/geometry were recorded at two separate time-points/days: once prior to dosing (e.g., at baseline, day −2) and at ˜2 hrs post-dosing (day 0). In these experiments, heart rate (HR), echocardiography-derived indices of left-ventricular systolic performance, as well as dimensions/volumes were measured using a high-frequency transducer and parasternal long-axis transthoracic views (Vevo3100, VisualSonic). LV fractional shortening (FS), an index of systolic function, was defined as the end-diastole normalized change in internal dimensions divided by the difference in diameter (LVid) of the left ventricle between end-systole (LVids) and end-diastole (LVidd) (e.g., FS=100·[LVidd−LVids]/LVidd). LV volumes were derived using the Teichholz formula (LVV=[7·LVid^3]/[2.4+LVid]). In addition, a systolic wall-thickening index (SWT) was also evaluated. SWT is defined as the relative ratio (end-diastole normalized) of left-ventricular (anterior and posterior) wall-thickness change during systole; e.g., SWT={[(anterior LV wall thickness in systole−anterior LV wall thickness in diastole)]+[(posterior LV wall thickness in systole−posterior LV wall thickness in diastole)]}/{2*diastolic thickness}. In all cases, blood samples were taken (via either tail-vein micro-sampling or cardiac-puncture) at the time of each echocardiographic examination in order to establish pharmacokinetic (PK)/pharmacodynamics (PD) relationships.

[1] = target: T1, Porcine ventricle myofibrils (ventricular myosin ATPase) (Sus scrofa, UniProt P79293); assay: Myofibril ATPase assay, porcine ventricle myofibrils; type: biochemical, porcine (Yucatan minipigs)
T1 construct: Myofibrils from porcine cardiac muscle was isolated from the left ventricle of Yucatan minipigs; tissue Exemplar Genetics; host or cells: left ventricle of Yucatan minipigs, myofibrils prepared in house
Procedure, shortened: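 ATPase activity of porcine left-ventricle myofibrils (Yucatan minipig) was followed through PK-LDH coupling as NADH loss at 340 nm, read every 1.5-2 min for 75 min. Slopes were normalised to vehicle wells and fitted to a 4-parameter logistic model. Values are Y75, the concentration giving a 25% drop in activity, or Y125 for activators.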

[2] = tested on: Porcine atria myofibrils (atrial myosin ATPase); assay: Myofibril ATPase assay, porcine atria myofibrils; type: biochemical
Procedure, shortened: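 Coupled PK-LDH reaction links ADP from myosin ATPase to NADH loss, read at 340 nm every 1.5-2 min for 75 min. Slopes (mAU/min) normalized to vehicle-only wells (100%) and fit to a 4-parameter logistic; Y75 is the concentration cutting activity by 25%, Y125 is reported for activators.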

[3] = tested on: Rabbit Psoas myofibrils (skeletal myosin ATPase); assay: Myofibril ATPase assay, rabbit psoas (skeletal) myofibrils; type: biochemical; settings: for Skeletal EC25: rabbit psoas myofibrils
Procedure, shortened: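 Rabbit psoas skeletal myofibrils in PIPES/CaCl2/EGTA pCa buffer, pH 7.0. ATPase rate followed by PK-LDH-coupled NADH loss at 340 nm, read every 1.5–2 min for 75 min. Slopes normalized to vehicle (100%) and fitted to a 4-parameter logistic; values are Y75 (25% inhibition) or Y125 (25% activation) concentrations.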

[4] = EDV change vs vehicle, read-out: EDV % vs. VEH
[5] = LV fractional shortening change vs vehicle, read-out: FS % vs. VEH
[6] = SWT change vs vehicle, read-out: SWT % vs. VEH
[7] = heart rate change vs vehicle, read-out: HR % vs. VEH
[8] = Y75 value (no ‡ mark), porcine ventricle myofibrils
[9] = Y75 value (no ‡ mark), porcine atria myofibrils
[10] = porcine ventricle myofibrils, Y75 value
[11] = porcine atria myofibrils, Y75 value (75% activity relative to no compound)

T1 sequence (P79293 whole entry): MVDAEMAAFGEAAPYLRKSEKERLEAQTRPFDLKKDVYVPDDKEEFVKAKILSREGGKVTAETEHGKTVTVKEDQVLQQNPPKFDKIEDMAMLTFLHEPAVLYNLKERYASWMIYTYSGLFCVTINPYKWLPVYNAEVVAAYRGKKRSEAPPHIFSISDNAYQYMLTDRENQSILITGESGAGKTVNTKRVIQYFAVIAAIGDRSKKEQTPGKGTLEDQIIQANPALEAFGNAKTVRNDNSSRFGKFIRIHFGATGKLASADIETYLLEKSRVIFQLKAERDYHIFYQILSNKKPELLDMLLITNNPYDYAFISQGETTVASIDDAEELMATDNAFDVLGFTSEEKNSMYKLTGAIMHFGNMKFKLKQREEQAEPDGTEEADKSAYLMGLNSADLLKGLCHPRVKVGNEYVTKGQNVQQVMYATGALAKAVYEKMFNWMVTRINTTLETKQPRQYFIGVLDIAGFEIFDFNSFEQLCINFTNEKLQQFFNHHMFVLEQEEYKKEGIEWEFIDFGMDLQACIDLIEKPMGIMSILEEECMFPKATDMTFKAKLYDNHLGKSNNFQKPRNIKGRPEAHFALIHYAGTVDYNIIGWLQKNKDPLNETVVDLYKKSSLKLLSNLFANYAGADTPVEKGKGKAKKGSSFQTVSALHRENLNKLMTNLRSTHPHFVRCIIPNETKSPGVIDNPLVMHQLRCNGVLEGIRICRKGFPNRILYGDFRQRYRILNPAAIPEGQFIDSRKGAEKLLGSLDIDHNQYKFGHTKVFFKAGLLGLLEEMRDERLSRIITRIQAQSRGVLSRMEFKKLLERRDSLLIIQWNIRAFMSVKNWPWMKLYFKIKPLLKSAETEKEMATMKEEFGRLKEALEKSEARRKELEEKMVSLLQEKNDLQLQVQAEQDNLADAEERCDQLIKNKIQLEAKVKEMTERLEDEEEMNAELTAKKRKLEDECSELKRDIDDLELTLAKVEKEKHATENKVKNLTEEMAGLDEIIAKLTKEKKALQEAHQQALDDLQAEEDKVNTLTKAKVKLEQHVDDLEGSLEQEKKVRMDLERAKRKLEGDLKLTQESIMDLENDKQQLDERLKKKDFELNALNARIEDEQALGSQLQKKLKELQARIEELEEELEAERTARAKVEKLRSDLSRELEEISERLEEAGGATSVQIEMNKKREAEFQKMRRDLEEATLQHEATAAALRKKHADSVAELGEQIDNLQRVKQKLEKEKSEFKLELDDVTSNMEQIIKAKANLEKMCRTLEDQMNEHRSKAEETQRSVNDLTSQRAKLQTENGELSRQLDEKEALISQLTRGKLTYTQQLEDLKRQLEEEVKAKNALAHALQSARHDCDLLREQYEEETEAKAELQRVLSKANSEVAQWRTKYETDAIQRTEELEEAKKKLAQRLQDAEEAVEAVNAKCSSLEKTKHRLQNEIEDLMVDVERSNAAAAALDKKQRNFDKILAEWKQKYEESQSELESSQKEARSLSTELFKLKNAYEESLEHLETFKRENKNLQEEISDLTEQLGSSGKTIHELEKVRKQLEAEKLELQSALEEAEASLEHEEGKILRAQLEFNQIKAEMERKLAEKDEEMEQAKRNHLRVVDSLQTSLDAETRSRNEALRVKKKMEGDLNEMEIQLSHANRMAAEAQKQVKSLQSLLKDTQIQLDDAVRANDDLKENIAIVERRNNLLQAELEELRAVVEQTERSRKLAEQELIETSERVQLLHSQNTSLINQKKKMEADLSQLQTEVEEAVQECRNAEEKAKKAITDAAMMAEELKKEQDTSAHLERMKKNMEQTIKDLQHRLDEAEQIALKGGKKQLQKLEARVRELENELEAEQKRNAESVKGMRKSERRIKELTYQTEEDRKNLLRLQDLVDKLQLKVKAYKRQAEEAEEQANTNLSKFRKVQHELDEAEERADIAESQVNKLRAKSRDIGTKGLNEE

Compound | change in vivo at 10 mg/kg (SD rats; [4]) [%] | change in vivo at 10 mg/kg (SD rats; [5]) [%] | change in vivo at 10 mg/kg (SD rats; [6]) [%] | change in vivo at 10 mg/kg (SD rats; [7]) [%] | Ventricular EC25 [1, 8] [µM] | Atrial EC25 [2, 9] [µM] | Skeletal EC25 ([3]; Y75 value (no ‡ mark)) [µM] | Ventricular EC25 [1, 10] [µM] | Atrial EC25 [2, 11] [µM] | Skeletal EC25 ([3]; Y75 value) [µM] | Ventricular EC25 ([1]; Y75 value: concentration required to reduce myosin ATP-ase activity by 25%, Porcine Ventricle Prep pCa 25 GEOM_MEAN) [µM] | Atrial EC25 ([2]; Y75 value: concentration required to reduce myosin ATP-ase activity by 25%, Porcine Atria Prep pCa 25 GEOM_MEAN) [µM] | Skeletal EC25 (μM), Y125 value (‡) ([3]; Y125 value: concentration required to increase myosin ATP-ase activity by 25%, Rabbit Psoas Prep pCa 25 GEOM_MEAN)
C[C@H](NC(=O)Cc1cc2c(F)c(F)ccc2[nH]c1=O)c1ncc(C#N)cc1F [compound 36] | 1 to 10 | 41 to 60 | 21 to 40 | 11 to 20 | 0.05 | 0.02 | 0.01 | – | – | – | – | – | –
Cc1c(CC(=O)N[C@@H](C)c2ncc(C#N)cn2)c(=O)[nH]c2ccc(F)c(F)c12 [compound 1124, (S)—N-(1-(5-cyanopyrimidin-2-yl)ethyl)-2-(5,6-difluoro-4-methyl-2-oxo-1,2-dihydroquinolin-3-yl)acetamide] | 1 to 10 | 21 to 40 | 1 to 20 | 1 to 10 | 0.34 | 0.07 | 0.14 | – | – | – | – | – | –
Cc1c(CC(=O)N[C@@H](C)c2ncc(C#N)cc2F)c(=O)[nH]c2ccc(F)c(F)c12 [compound 42] | 1 to 10 | 21 to 40 | ≥ 21 | 0 | 0.04 | 0.08 | 0.01 | – | – | – | – | – | –
Cc1c(CC(=O)N[C@H](C)c2ncc(C#N)cc2F)c(=O)[nH]c2ccc(F)cc12 [compound 1106] | 1 to 10 | 21 to 40 | 21 to 40 | 1 to 10 | 0.49 | 0.54 | 0.37 | – | – | – | – | – | –
Cc1c(CC(=O)N[C@@H](C)c2ccc(F)cc2F)c(=O)[nH]c2ccnc(C#N)c12 [compound 355, 2-(5-cyano-4-methyl-2-oxo-1H-1,6-naphthyridin-3-yl)-N-[(1S)-1-(2,4-difluorophenyl)ethyl]acetamide] | 1 to 10 | 11 to 20 | 1 to 10 | 1 to 10 | – | – | – | 0.14 | 0.07 | 0.01 | – | – | –
Cc1c(CC(=O)N[C@@H](C)c2cnc(C#N)cn2)c(=O)[nH]c2ccc(F)c(F)c12 [compound 1146, (S)—N-(1-(5-cyanopyrazin-2-yl)ethyl)-2-(5,6-difluoro-4-methyl-2-oxo-1,2-dihydroquinolin-3-yl)acetamide] | 1 to 20 | 21 to 40 | 21 to 40 | 1 to 10 | 0.19 | 0.14 | 0.21 | – | – | – | – | – | –
Cc1c(CC(=O)N[C@H](C)c2ncc(C#N)cn2)c(=O)[nH]c2ccc(F)c(F)c12 [compound 1123, (R)—N-(1-(5-cyanopyrimidin-2-yl)ethyl)-2-(5,6-difluoro-4-methyl-2-oxo-1,2-dihydroquinolin-3-yl)acetamide] | 21 to 40 | 21 to 40 | 41 to 60 | 1 to 10 | 1.37 | 0.48 | 0.58 | – | – | – | – | – | –
Cc1c(CC(=O)N[C@H](C)c2ncc(C#N)cc2F)c(=O)[nH]c2ccc(F)c(C3CC3)c12 [compound 27] | 11 to 20 | 11 to 20 | ≥ 21 | 1 to 20 | 0.24 | 0.23 | 0.14 | – | – | – | – | – | –
C[C@H](NC(=O)Cc1cc2c(F)c(F)ccc2[nH]c1=O)c1nc(C#N)co1 (single isomer, unassigned) [compound 4007] | – | – | – | – | – | – | – | – | – | – | 100.00 | 100.00 | 100.00‡ μM
CCOc1nccc2[nH]c(=O)c([C@@H](C)C(=O)N[C@@H](C)c3ccc(F)cc3F)c(C(F)(F)F)c12 (single isomer, unassigned) [compound 416] | – | – | – | – | – | – | – | 100.00 | 100.00 | 0.46 | – | – | –
CC(C(=O)N[C@@H](C)c1ccc(F)cc1F)c1cc2ccccc2[nH]c1=O (some centres unmarked) [compound 134] | – | – | – | – | 100.00 | 100.00 | 7.99 | – | – | – | – | – | –
C[C@H](NC(=O)Cc1cc2cc(O)ccc2[nH]c1=O)c1ccc(F)cc1F [compound 125] | – | – | – | – | 20.89 | 64.80 | 25.67 | – | – | – | – | – | –
Cc1nccc2[nH]c(=O)c([C@H](C)C(=O)N[C@@H](C)c3ccc(C#N)cc3F)c(C)c12 (single isomer, unassigned) [compound 196] | – | – | – | – | – | – | – | 4.23 | 0.11 | 0.18 | – | – | –
Cc1nc(C#N)cnc1[C@H](C)NC(=O)C(F)(F)c1c(C)c2c(C)nccc2[nH]c1=O (single isomer, unassigned) [compound 3505] | – | – | – | – | – | – | – | 13.00 | 1.90 | 4.70 | – | – | –
COC[C@H](NC(=O)Cc1c(C)c2c(C#N)nccc2[nH]c1=O)c1ccc(C#N)cc1F [compound 170] | – | – | – | – | – | – | – | 1.02 | 0.08 | 0.03 | – | – | –
COc1cccc([C@@H](C)NC(=O)Cc2c(C)c3c(C)nccc3[nH]c2=O)n1 (single isomer, unassigned) [compound 309] | – | – | – | – | – | – | – | 100.00 | 100.00 | 100.00 | – | – | –
C[C@H](NC(=O)Cc1cc2c(F)cc(F)cc2[nH]c1=O)c1ncc(C#N)cc1F [compound 1138] | – | – | – | – | 1.22 | 1.64 | 0.04 | – | – | – | – | – | –
Cc1c(CC(=O)N[C@H](C)c2ccc(C#N)cn2)c(=O)[nH]c2cccc(F)c12 [compound 53] | – | – | – | – | 6.53 | 1.93 | 0.31 | – | – | – | – | – | –
